Values joined by “and” are separate entries in the source; they are usually repeats but may differ in a detail not shown here. Equal entries are not always repeated. Toxic doses and inconclusive results are not listed. Peptide text beside a SMILES is read from it. * marks the point of attachment. Boc = CC(C)(C)OC(=O)*; NHNH2 = NN*
Test system: P388 leukemia ip, CD2F1 mice, survival T/C
Test: NCI In Vivo Anticancer Drug Screen. Data for tumor model P388 Leukemia (intraperitoneal) in CD2F1 (CDF1) mice
Settings: endpoint: median survival time, higher = longer survival
Procedure, shortened: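 Mice carrying the transplanted tumor received test compound or vehicle. Survival was recorded in each group, and the value is the treated-group measurement divided by that of the vehicle-treated control group.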

[1] = dose: 50.0 mg/kg/injection, schedule: Q01DX009 (ip), vehicle: Klucel (hydroxypropylcellulose) (HPC)
[2] = dose: 100.0 mg/kg/injection, schedule: Q01DX009 (ip), vehicle: Klucel (hydroxypropylcellulose) (HPC)
[3] = dose: 25.0 mg/kg/injection, schedule: Q01DX009 (ip), vehicle: saline with Tween-80
[4] = dose: 50.0 mg/kg/injection, schedule: Q01DX009 (ip), vehicle: saline with Tween-80
[5] = dose: 100.0 mg/kg/injection, schedule: Q01DX009 (ip), vehicle: saline with Tween-80
[6] = dose: 200.0 mg/kg/injection, schedule: Q01DX009 (ip), vehicle: saline with Tween-80
[7] = dose: 50.0 mg/kg/injection, schedule: Q01DX005 (ip), vehicle: saline with Tween-80
[8] = dose: 100.0 mg/kg/injection, schedule: Q01DX005 (ip), vehicle: saline with Tween-80

`CC(C)CC(C(=O)O)N(CC(=O)O)CC(=O)O` (stereo unspecified) was tested, and the T/C (dose: 12.5 mg/kg/injection, schedule: Q01DX005 (ip), vehicle: saline) was 97 % of control, the T/C (dose: 25.0 mg/kg/injection, schedule: Q01DX005 (ip), vehicle: saline) was 87 % of control and the T/C (dose: 50.0 mg/kg/injection, schedule: Q01DX005 (ip), vehicle: saline) was 98 % of control.
For `COc1ccc(/C(C#N)=C/c2cccs2)cc1`, the T/C [1] was 111 % of control, the T/C [2] was 102 % of control and the T/C (dose: 200.0 mg/kg/injection, schedule: Q01DX009 (ip), vehicle: Klucel (hydroxypropylcellulose) (HPC)) was 104 % of control.
In the case of `Cc1ccc(C(=O)CSCC(=O)c2ccc(C)cc2)cc1`, the T/C (dose: 50.0 mg/kg/injection, schedule: Q01DX005 (ip), vehicle: Klucel (hydroxypropylcellulose) (HPC)) was 87 % of control, the T/C (dose: 100.0 mg/kg/injection, schedule: Q01DX005 (ip), vehicle: Klucel (hydroxypropylcellulose) (HPC)) was 86 % of control and the T/C (dose: 200.0 mg/kg/injection, schedule: Q01DX005 (ip), vehicle: Klucel (hydroxypropylcellulose) (HPC)) was 94 % of control.
`Nc1nc(N)nc(-c2cccs2)n1` was tested, and the T/C [3] was 92 % of control, the T/C [4] was 101 % of control and the T/C (dose: 50.0 mg/kg/injection, schedule: Q04DX002 (ip), vehicle: saline with Tween-80) was 92 % of control. The T/C [5] was 100 % of control, the T/C (dose: 100.0 mg/kg/injection, schedule: Q04DX002 (ip), vehicle: saline with Tween-80) was 90 % of control and the T/C (dose: 200.0 mg/kg/injection, schedule: Q04DX002 (ip), vehicle: saline with Tween-80) was 106 % of control.
With `O=C(CCl)N/N=C(\Cc1ccccc1)c1ccccc1` the T/C [5] was 97 % of control, the T/C [6] was 98 % of control and the T/C (dose: 400.0 mg/kg/injection, schedule: Q01DX009 (ip), vehicle: saline with Tween-80) was 103 % of control.
In the case of `[N-]=[N+]=NCN1C(=O)C2C3C=CC(C2C1=O)C1C2C(=O)N(CN=[N+]=[N-])C(=O)C2C31` (stereo unspecified), the T/C [3] was 106 % of control, the T/C [4] was 108 % of control and the T/C [5] was 100 % of control. The T/C [6] was 115 % of control.
`CCC(C)C(NC(=O)C(Cc1c[nH]c2ccccc12)NC(=O)OC(C)(C)C)C(=O)NN` (stereo not drawn) (Boc-Trp-Ile-NHNH2; configuration not given here) was tested, and the T/C (dose: 12.5 mg/kg/injection, schedule: Q01DX009 (ip), vehicle: other) was 97 % of control, the T/C (dose: 25.0 mg/kg/injection, schedule: Q01DX009 (ip), vehicle: other) was 91 % of control and the T/C (dose: 50.0 mg/kg/injection, schedule: Q01DX009 (ip), vehicle: other) was 87 % of control. For the same compound, the T/C (dose: 100.0 mg/kg/injection, schedule: Q01DX009 (ip), vehicle: other) was 94 % of control and the T/C (dose: 200.0 mg/kg/injection, schedule: Q01DX009 (ip), vehicle: other) was 100 % of control.
With `CCOC(=O)c1cc(NC(C)=O)c(C)n1C` the T/C (dose: 100.0 mg/kg/injection, schedule: Q04DX003 (ip), vehicle: saline with Tween-80) was 107 % of control, the T/C (dose: 200.0 mg/kg/injection, schedule: Q04DX003 (ip), vehicle: saline with Tween-80) was 116 % of control and the T/C (dose: 400.0 mg/kg/injection, schedule: Q04DX003 (ip), vehicle: saline with Tween-80) was 112 % of control.
For `COC1/C=C/OC2(C)Oc3c(C)c(O)c4c(O)c(c(C=NN5C(C)CN(Cc6ccc(Cl)cc6)CC5C)c(O)c4c3C2=O)NC(=O)/C(C)=C/C=C/C(C)C(O)C(C)C(O)C(C)C(OC(C)=O)C1C` (stereo unspecified), the T/C [4] was 98 % of control, the T/C [5] was 95 % of control and the T/C [6] was 95 % of control.
With `C/C(=N\N=N\c1ccc(C)s1)c1ccccc1` the T/C (dose: 50.0 mg/kg/injection, schedule: Q01DX005 (ip), vehicle: Klucel + Tween-80) was 105 % of control, the T/C (dose: 100.0 mg/kg/injection, schedule: Q01DX005 (ip), vehicle: Klucel + Tween-80) was 105 % of control and the T/C (dose: 200.0 mg/kg/injection, schedule: Q01DX005 (ip), vehicle: Klucel + Tween-80) was 97 % of control.
For `CN(CCN(C)C(=O)CCOS(C)(=O)=O)C(=O)CCOS(C)(=O)=O`, the T/C (dose: 12.5 mg/kg/injection, schedule: Q01DX009 (ip), vehicle: saline) was 151 % of control, the T/C (dose: 25.0 mg/kg/injection, schedule: Q01DX009 (ip), vehicle: saline) was 175 % of control and the T/C (dose: 50.0 mg/kg/injection, schedule: Q01DX009 (ip), vehicle: saline) was 192 % of control and 210 % of control. For the same compound, the T/C (dose: 100.0 mg/kg/injection, schedule: Q01DX009 (ip), vehicle: saline) was 260 % of control and 290 % of control and the T/C (dose: 200.0 mg/kg/injection, schedule: Q01DX009 (ip), vehicle: saline) was 116 % of control and 297 % of control.
For `Cc1cc2c(c3ccccc13)C(=N/N=C(N)N)/C(=N/N=C(N)N)C2`, the T/C (dose: 6.25 mg/kg/injection, schedule: Q01DX009 (ip), vehicle: saline with Tween-80) was 101 % of control, the T/C (dose: 12.5 mg/kg/injection, schedule: Q01DX009 (ip), vehicle: saline with Tween-80) was 108 % of control and the T/C (dose: 25.0 mg/kg/injection, schedule: Q01DX001 (ip), vehicle: saline with Tween-80) was 105 % of control. For the same compound, the T/C [3] was 101 % of control and the T/C (dose: 50.0 mg/kg/injection, schedule: Q01DX001 (ip), vehicle: saline with Tween-80) was 97 % of control.
`N#Cc1ccc(OC(=O)Nc2ccc(F)cc2)cc1` was tested, and the T/C (dose: 60.0 mg/kg/injection, schedule: Q01DX005 (ip), vehicle: saline with Tween-80) was 106 % of control and the T/C (dose: 120.0 mg/kg/injection, schedule: Q01DX005 (ip), vehicle: saline with Tween-80) was 104 % of control.
In the case of `CCOC(=O)C1=C(C)O/C(=C\c2cccc(C(F)(F)F)c2)C1=O`, the T/C [7] was 108 % of control and the T/C [8] was 109 % of control.
With `CN(C)C(=[Se])[Se]C(=[Se])N(C)C` the T/C (dose: 3.75 mg/kg/injection, schedule: Q01DX005 (ip), vehicle: Klucel (hydroxypropylcellulose) (HPC)) was 99 % of control, the T/C (dose: 7.5 mg/kg/injection, schedule: Q01DX005 (ip), vehicle: Klucel (hydroxypropylcellulose) (HPC)) was 99 % of control and the T/C (dose: 15.0 mg/kg/injection, schedule: Q01DX005 (ip), vehicle: Klucel (hydroxypropylcellulose) (HPC)) was 100 % of control.
In the case of `CC(C)CC(CC(C)C)[N+](=O)[O-]`, the T/C [7] was 111 % of control, the T/C [8] was 105 % of control and the T/C (dose: 200.0 mg/kg/injection, schedule: Q01DX005 (ip), vehicle: saline with Tween-80) was 107 % of control.
For `COc1ccc([N+](=O)[O-])cc1NC(=O)N(C)Cc1ccco1`, the T/C [4] was 103 % of control, the T/C [5] was 109 % of control and the T/C [6] was 106 % of control.
In the case of `COc1ccc(C[N+]2=Cc3cc(OC)c(OC)cc3CC2)cc1`, the T/C (dose: 12.5 mg/kg/injection, schedule: Q01DX001 (ip), vehicle: saline + alcohol) was 100 % of control, the T/C (dose: 25.0 mg/kg/injection, schedule: Q01DX001 (ip), vehicle: saline + alcohol) was 98 % of control and the T/C (dose: 50.0 mg/kg/injection, schedule: Q01DX001 (ip), vehicle: saline + alcohol) was 98 % of control.
For `COc1ccc(-c2c(C)oc(C)c2C(C)=O)cc1OC`, the T/C (dose: 60.0 mg/kg/injection, schedule: Q01DX005 (ip), vehicle: Klucel (hydroxypropylcellulose) (HPC)) was 98 % of control, the T/C (dose: 120.0 mg/kg/injection, schedule: Q01DX005 (ip), vehicle: Klucel (hydroxypropylcellulose) (HPC)) was 102 % of control and the T/C (dose: 240.0 mg/kg/injection, schedule: Q01DX005 (ip), vehicle: Klucel (hydroxypropylcellulose) (HPC)) was 101 % of control.
With `O=C(Nc1ccc(CCC2=NCCCN2)cc1)c1ccc(C(=O)Nc2ccc(CCC3=NCCCN3)cc2)cc1` the T/C (dose: 25.0 mg/kg/injection, schedule: Q01DX005 (ip), vehicle: saline with Tween-80) was 115 % of control and the T/C [7] was 113 % of control.
In the case of `CCOC(=O)c1nc(N(C)C)oc(=O)c1C`, the T/C (dose: 60.0 mg/kg/injection, schedule: Q01DX005 (ip), vehicle: saline) was 101 % of control, the T/C (dose: 120.0 mg/kg/injection, schedule: Q01DX005 (ip), vehicle: saline) was 97 % of control and the T/C (dose: 240.0 mg/kg/injection, schedule: Q01DX005 (ip), vehicle: saline) was 100 % of control.
`C=C1CC=CC(C)(C)C12CC(Br)C(C)(Cl)CC2O` (stereo unspecified) was tested, and the T/C (dose: 10.0 mg/kg/injection, schedule: Q01DX009 (ip), vehicle: Klucel (hydroxypropylcellulose) (HPC)) was 115 % of control, the T/C (dose: 20.0 mg/kg/injection, schedule: Q01DX009 (ip), vehicle: Klucel (hydroxypropylcellulose) (HPC)) was 109 % of control and the T/C (dose: 40.0 mg/kg/injection, schedule: Q01DX009 (ip), vehicle: Klucel (hydroxypropylcellulose) (HPC)) was 106 % of control.
For `Cn1c(CCCC(=O)O)nc2cc(N(CCCl)CCCl)ccc21`, the T/C (dose: 5.0 mg/kg/injection, schedule: Q01DX009 (ip), vehicle: saline sonified) was 154 % of control, the T/C (dose: 9.9 mg/kg/injection, schedule: Q04DX003 (ip), vehicle: saline with Tween-80) was 150 % of control and the T/C (dose: 10.0 mg/kg/injection, schedule: Q01DX009 (ip), vehicle: saline sonified) was 168 % of control. The T/C (dose: 22.5 mg/kg/injection, schedule: Q04DX003 (ip), vehicle: saline with Tween-80) was 163 % of control.
For `CC/C=C/c1cc2ccccc2c(=O)o1`, the T/C (dose: 12.5 mg/kg/injection, schedule: Q01DX009 (ip), vehicle: Klucel (hydroxypropylcellulose) (HPC)) was 106 % of control, the T/C (dose: 25.0 mg/kg/injection, schedule: Q01DX009 (ip), vehicle: Klucel (hydroxypropylcellulose) (HPC)) was 114 % of control and the T/C [1] was 100 % of control. For the same compound, the T/C [2] was 110 % of control.
